One compound from patent publication US10738004B2, “Cyclic compound” (Takeda Pharmaceutical Company Limited, priority 2016, dated 2020) can be followed below.

For one data set, the target named is T1, TLR4 (Mus musculus, UniProt Q9QUK6).
T1 construct: measured using mouse macrophage cell line RAW264.7; endogenous in cells; host or cells: RAW264.7 (mouse macrophage cell line)
T1 sequence (Q9QUK6 26-835): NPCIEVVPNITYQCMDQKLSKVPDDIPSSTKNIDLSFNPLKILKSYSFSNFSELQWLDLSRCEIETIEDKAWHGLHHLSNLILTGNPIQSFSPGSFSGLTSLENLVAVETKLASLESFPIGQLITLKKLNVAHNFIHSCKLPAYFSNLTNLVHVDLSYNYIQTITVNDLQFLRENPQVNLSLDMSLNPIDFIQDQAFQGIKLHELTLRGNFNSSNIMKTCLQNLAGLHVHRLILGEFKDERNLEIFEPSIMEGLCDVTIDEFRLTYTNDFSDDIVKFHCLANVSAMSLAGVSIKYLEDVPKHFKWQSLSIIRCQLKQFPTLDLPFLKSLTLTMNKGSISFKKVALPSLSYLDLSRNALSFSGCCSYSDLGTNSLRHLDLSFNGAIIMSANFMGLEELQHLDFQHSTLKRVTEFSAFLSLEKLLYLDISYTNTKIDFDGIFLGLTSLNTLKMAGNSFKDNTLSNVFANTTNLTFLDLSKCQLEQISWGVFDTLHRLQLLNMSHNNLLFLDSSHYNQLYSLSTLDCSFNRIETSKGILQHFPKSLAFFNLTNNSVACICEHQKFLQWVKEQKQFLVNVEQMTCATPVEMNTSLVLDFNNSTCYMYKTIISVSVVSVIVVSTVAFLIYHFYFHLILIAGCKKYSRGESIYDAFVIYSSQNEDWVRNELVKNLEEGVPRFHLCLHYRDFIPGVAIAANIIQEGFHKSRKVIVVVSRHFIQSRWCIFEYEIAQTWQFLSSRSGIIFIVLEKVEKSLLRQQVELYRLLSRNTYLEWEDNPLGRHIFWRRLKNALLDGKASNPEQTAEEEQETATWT
T1 sequence (Q9JHF9 19-160 partner): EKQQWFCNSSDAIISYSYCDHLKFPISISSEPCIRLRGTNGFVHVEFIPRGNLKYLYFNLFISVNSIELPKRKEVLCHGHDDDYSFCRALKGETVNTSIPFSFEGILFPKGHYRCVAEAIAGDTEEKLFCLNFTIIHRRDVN
Put plainly: Suppressive effect on NO production (LPS-stimulated RAW264.7). Type of data set: cell-based. The settings on record: mouse macrophage cell line RAW264.7; compound final concentration 10 nM; LPS 1.25 ng/ml + mouse interferon gamma 0.2 ng/ml; nitrite ion in culture supernatant (DAN fluorescence). The method, then:
The suppressive activity on TLR4 was measured using mouse macrophage cell line RAW264.7 and by an inhibition ratio by the test compound (compound of Example 1) against NO produced by the addition of lipopolysaccharide (LPS). The cells were prepared at 2×10^6 cells/ml in RPMI-1640 medium (phenol red free) supplemented with 10% inactivated fetal calf serum, and seeded in a 384-well plate at 6×10^4 cells/30 μL per well. The cells were cultured overnight at 37° C. under 5% CO2/95% air. The test compound dissolved in DMSO was diluted 200-fold with RPMI-1640 medium to a compound concentration of […]. The prepared test compound (10 μL) was added to the cells (final concentration 10 nM), and LPS (Sigma Ltd.) and mouse interferon gamma (Wako Pure Chemical Industries, Ltd.) were respectively added by 10 μL to the final concentrations of 1.25 ng/ml and 0.2 ng/ml. After further culturing overnight, the concentration of nitrite ion (stable metabolite of NO) in the culture supernatant was measured and used as an index of NO production. The nitrite ion concentration was quantified by adding 10 μL of a solution of 20 μg/mL 2,3-diaminonaphthalene (DAN) in 0.2N HCl to the culture supernatant (20 μL), incubating the mixture at room temperature for 10 min, adding 0.5N NaOH (10 μL), and measuring 460 nm (excitation wavelength 355 nm) fluorescence value by a plate reader EnVision (PerkinElmer). […]

Regarding `CCOC(=O)C1=C[C@@H](O)CC[C@H]1S(=O)(=O)Cc1ccc(F)cc1Cl` (single isomer, unassigned) [Example 1], the melting point – broadly, the temperature of the solid-liquid transition – is 155 to 156 °C. Moreover, the “NO production suppression effect at 10 nM (% inhibition)” value at TLR4 stood at 98 % inhibition.
